Source: the C3SDB collision cross section collection
Counter-ions that a name gives are not always drawn.

Assays:
[1] = instrument: DT, single field, calibrated with Agilent tune mix (Agilent)
[2] = instrument: DT, single field, calibrated with ESI Low Concentration Tuning Mix (Agilent)
[3] = instrument: TW, calibrated with polyalanine and drug standards

collision cross section (N2) ([1]; [M+H]+) [Å²] | collision cross section (N2) ([1]; [M-H]-) [Å²] | SMILES | also measured
134.4 | 127.69 | NC(CCCC(=O)O)C(=O)O (racemic) [DL-2-Aminoadipic acid] | –
– | – | O=C(O)C(CO)OP(=O)(O)O (racemic) [DL-2-Phosphoglycerate] | collision cross section (N2) ([1]; [M+Na]+): 141.8 Å²
133.1 | – | CS(=O)CCC(N)C(=O)O (racemic) [DL-Methionine sulfoxide] | –
– | 133.24 | Cn1c(=O)[nH]c2ncn(C)c2c1=O [1,7-Dimethylxanthine] | –
– | – | Cn1cc(CCN)c2ccccc21 [1-Methyltryptamine] | collision cross section (N2) ([1]; [M+Na]+): 139 Å²
– | 129.18 | Cn1c(=O)[nH]c2[nH]c(=O)[nH]c2c1=O [1-Methyluric acid] | –
– | 157.84 | O=C(O)c1ccccc1O[C@@H]1O[C@H](C(=O)O)[C@@H](O)[C@H](O)[C@H]1O [1-Salicylate glucuronide] | collision cross section (N2) ([1]; [M+Na]+): 170.1 Å²
168.1 | – | Nc1ncnc2c1ncn2[C@H]1C[C@H](O)[C@@H](COP(=O)(O)O)O1 [2'-Deoxyadenosine 5'-monophosphate] | –
– | – | Nc1ccn([C@H]2C[C@H](O)[C@@H](COP(=O)(O)O)O2)c(=O)n1 [2'-Deoxycytidine 5'-monophosphate] | collision cross section (N2) ([1]; [M+Na]+): 164 Å²
– | – | O=C(O)C(COP(=O)(O)O)OP(=O)(O)O [2,3-Diphospho-D-glyceric acid] | collision cross section (N2) ([1]; [M+Na]+): 152.3 Å²
– | 132.47 | O=P(O)(O)OC[C@H]1O[C@@H](O)C[C@@H]1O [2-Deoxyribose 5-phosphate] | –
– | – | CNc1nc(=O)c2ncn([C@@H]3O[C@H](CO)[C@@H](O)[C@H]3O)c2[nH]1 [2-Methylguanosine] | collision cross section (N2) ([1]; [M+Na-2H]-): 166.02 Å²; collision cross section (N2) ([1]; [M+Na]+): 178.4 Å²
– | – | O=C(O)CCCC(=O)C(=O)O [2-Oxoadipic acid] | collision cross section (N2) ([1]; [M+Na-2H]-): 129.65 Å²
148.7 | 138.21 | N[C@@H](Cc1ccc(O)c(O)c1)C(=O)O [3,4-Dihydroxy-L-phenylalanine] | –
– | – | O=C(O)Cc1ccc(O)c(O)c1 [3,4-Dihydroxyphenylacetic acid] | collision cross section (N2) ([1]; [M-H2O-H]-): 125.7 Å²
198.2 | 186.44 | NC(Cc1cc(I)c(Oc2ccc(O)cc2)c(I)c1)C(=O)O (stereo not drawn) [3,5-Diiodothyronine] | –
– | 122.88 | CC(CC(=O)O)CC(=O)O [3-Methylglutaric acid] | –
– | 128.86 | Cn1c(=O)[nH]c(=O)c2[nH]c(=O)[nH]c21 [3-Methyluric acid] | –
– | – | O=C(O)[C@H](O)COP(=O)(O)O [3-Phospho-D-glycerate] | collision cross section (N2) ([1]; [M+Na]+): 139.4 Å²
– | 187.18 | C[C@]12CC[C@@H](O)C[C@H]1CC[C@@H]1[C@@H]2[C@@H](O)C[C@]2(C)[C@@H](C(=O)CO)CC[C@@H]12 [3alpha,11beta,21-Trihydroxy-5beta-pregnan-20-one] | collision cross section (N2) ([1]; [M+H-H2O]+): 179.6 Å²
129.7 | – | NC(N)=NCCCC(=O)O [4-Guanidinobutyric acid] | –
– | 119.33 | O=C(O)c1ccc([O-])cc1 [4-Hydroxybenzoate] | collision cross section (N2) ([1]; [M+H-H2O]+): 119 Å²
137.4 | – | COc1ccc(CC(=O)O)cc1 [4-Methoxyphenylacetic acid] | –
– | 192.06 | Nc1nc(=O)c2c([nH]1)NCC1CN(c3ccc(C(=O)NC(CCC(=O)O)C(=O)O)cc3)CN21 (stereo not drawn) [5,10-methylene-THF] | –
– | 148.86 | N[C@@H](Cc1c[nH]c2ccc(O)cc12)C(=O)O [5-Hydroxy-L-tryptophan] | collision cross section (N2) ([1]; [M+Na]+): 152.2 Å²
– | – | O=C(O)[C@H](O)[C@@H](O)[C@H](O)[C@H](O)COP(=O)(O)O [6-Phospho-D-gluconate] | collision cross section (N2) ([1]; [M+Na]+): 157.3 Å²
154.1 | – | C[C@H](O)[C@H](O)C1=Nc2c([nH]c(N)nc2=O)NC1 [7,8-Dihydrobiopterin] | –
– | 129.35 | Cn1c(=O)[nH]c2[nH]c(=O)[nH]c(=O)c21 [7-Methyluric acid] | –

collision cross section (N2) ([1]; [M+H]+) [Å²] | collision cross section (N2) ([1]; [M-H]-) [Å²] | SMILES | also measured
170.1 | – | CC1=C(/C=C/C(C)=C\C=C\C(C)=C\C=O)C(C)(C)CCC1 [9-cis-Retinal] | –
– | 200.01 | CC1=C(/C=C/C(C)=C\C=C\C(C)=C\C(=O)O)C(C)(C)CCC1 [9-cis-Retinoic acid] | collision cross section (N2) ([1]; [M+H-H2O]+): 169.6 Å²
186.5 | 184.42 | CC12CCC(=O)C=C1CCC1C2CCC2(C)C(C(=O)CO)CCC12 (stereo not drawn) [11-Deoxycorticosterone] | –
– | 185.89 | C[C@]12CC[C@H]3[C@@H](CC=C4C[C@@H](O)CC[C@@]43C)[C@@H]1CC[C@@H]2C(=O)CO [21-Hydroxypregnenolone] | collision cross section (N2) ([1]; [M+H-H2O]+): 178.4 Å²
– | 217.74 | CC(C)CC[C@@H](O)[C@@H](C)[C@H]1CC[C@H]2[C@@H]3CC=C4C[C@@H](O)CC[C@]4(C)[C@H]3CC[C@]12C [22beta-Hydroxycholesterol] | collision cross section (N2) ([1]; [M+H-H2O]+): 205.2 Å²
– | 200.06 | C=C1CC[C@H](O)C/C1=C/C=C1\CCC[C@]2(C)[C@@H]([C@H](C)CCCC(C)(C)O)CC[C@@H]12 [25-hydroxyvitamin D3] | –
211.4 | – | Nc1ncnc2c1ncn2[C@@H]1O[C@H](COP(=O)(O)OP(=O)(O)OC[C@@H](O)[C@@H](O)[C@@H](O)C=O)[C@@H](O)[C@H]1O [ADP Ribose] | –
247.8 | 252.94 | CC(=O)CC(=O)SCCNC(=O)CCNC(=O)[C@H](O)C(C)(C)COP(=O)(O)OP(=O)(O)OC[C@H]1O[C@@H](n2cnc3c(N)ncnc32)[C@H](O)[C@@H]1OP(=O)(O)O [Acetoacetyl coenzyme A] | –
– | – | CC(=O)Oc1cc(C)c(OC(C)=O)c2ccccc12 [Acetomenaphthone] | collision cross section (N2) ([1]; [M+Na]+): 157.2 Å²
129.7 | – | CC(=O)OCC[N+](C)(C)C [Acetylcholine] | –
186.1 | – | Nc1ncnc2c1ncn2[C@@H]1O[C@H](COP(=O)(O)OP(=O)(O)O)[C@@H](O)[C@H]1O [Adenosine 5'-diphosphate] | –
– | 180.48 | Nc1ncnc2c1ncn2[C@@H]1O[C@H](COP(=O)(O)OS(=O)(=O)O)[C@@H](O)[C@H]1O [Adenosine 5'-phosphosulfate] | collision cross section (N2) ([1]; [M+Na]+): 190.4 Å²
– | 183.41 | CCCCCCCCCCCCCCCCCCCC(=O)O [Arachidic acid] | –
– | 178.94 | CCCCC/C=C\C/C=C\C/C=C\C/C=C\CCCC(=O)O [Arachidonic Acid] | –
– | 191.18 | CCCCCCCCCCCCCCCCCCCCCC(=O)O [Behenic acid] | –
– | 121.84 | O=C(O)c1ccccc1 [Benzoic acid] | –
– | 141.51 | O=P(O)(O)O[C@]1(CO)O[C@H](CO)[C@@H](O)[C@@H]1O [Beta-D-Fructose 2-phosphate] | collision cross section (N2) ([1]; [M+Na]+): 154 Å²
149.3 | 141.02 | O=P(O)(O)OC[C@H]1O[C@](O)(CO)[C@@H](O)[C@@H]1O [Beta-D-Fructose 6-phosphate] | –
117.2 | – | C[N+](C)(C)CC=O [Betaine aldehyde] | –
252.9 | – | CCCC(=O)SCCNC(=O)CCNC(=O)[C@H](O)C(C)(C)COP(=O)(O)OP(=O)(O)OC[C@H]1O[C@@H](n2cnc3c(N)ncnc32)[C@H](O)[C@@H]1OP(=O)(O)O [Butyryl-CoA] | –
– | 253.26 | CCCC(=O)SCCNC(=O)CCNC(=O)[C@H](O)C(C)(C)COP(=O)(O)OP(=O)(O)OC[C@H]1O[C@@H](n2cnc3c(N)ncnc32)[C@H](O)[C@@H]1OP(=O)(O)O [Butyryl-coenzyme A] | –
– | 237.01 | CC(C)CCC[C@@H](C)[C@H]1CC[C@H]2[C@@H]3CC=C4C[C@@H](OS(=O)(=O)O)CC[C@]4(C)[C@H]3CC[C@]12C [Cholesteryl sulfate] | –
257.2 | 271.13 | CC1=C(CCC(=O)O)c2cc3nc(cc4[nH]c(cc5[nH]c(cc1n2)c(C)c5CCC(=O)O)c(CCC(=O)O)c4C)C(CCC(=O)O)=C3C [Coproporphyrin III] | –
– | 131.77 | N[C@@H](CS)C(=O)NCC(=O)O [Cysteinylglycine] | –
– | – | OC[C@H]1O[C@H](OC[C@H]2OC(O)[C@H](O)[C@@H](O)[C@@H]2O)[C@H](O)[C@@H](O)[C@H]1O (stereo partly drawn) [MELIBIOSE] | collision cross section (N2) ([2]; [M+H]+): 180.4 Å²; collision cross section (N2) ([2]; [M+K]+): 180 Å²; collision cross section (N2) ([2]; [M+Na]+): 177.3 Å²; collision cross section (N2) ([2]; [M-H]-): 178.1 Å²; collision cross section (N2) ([3]; [M+Na]+): 174.8 Å²
– | – | Cn1c(=O)[nH]c2ncn(C)c2c1=O [PARAXANTHINE] | collision cross section (N2) ([2]; [M+H]+): 138.7 Å²; collision cross section (N2) ([2]; [M+Na]+): 149.5 Å²; collision cross section (N2) ([3]; [M+H]+): 132.4 Å²
– | – | Cn1c(=O)c2[nH]cnc2n(C)c1=O [THEOPHYLLINE] | collision cross section (N2) ([2]; [M-H]-): 132 Å²; collision cross section (N2) ([3]; [M+H]+): 133.5 Å²

SMILES | collision cross section (N2) ([1]; [M+H]+) [Å²] | collision cross section (N2) ([1]; [M-H]-) [Å²] | also measured
O=C(O)c1ccc(=O)[nH]c1 [6-Hydroxynicotinic acid] | 129.5 | 118.52 | –
Nc1ccccc1C(=O)O [Anthranilic acid] | – | 123.99 | collision cross section (N2) ([1]; [M+H-H2O]+): 118.8 Å²
